ChEMBL document CHEMBL4359852, “Design, synthesis and biological evaluation of novel 5-(piperazin-1-yl)quinolin-2(1H)-one derivatives as potential chitin synthase inhibitors and antifungal agents” (Eur J Med Chem, 2019)
≈ marks a conversion by molar mass, not a printed value.

How the values were obtained:
Pseudomonas aeruginosa = experiment: Antibacterial activity against Pseudomonas aeruginosa ATCC 9027 assessed as reduction in bacterial cell growth incubated for overnight by two-fold serial dilution method; format: functional
[1] = Inhibition of Saccharomyces cerevisiae CGMCC 2.145 chitin synthase using GlcNAc and UDP-GlcNAc as substrate incubated for 60 mins by microplate reader analysis
Candida albicans = experiment: Antifungal activity against Candida albicans ATCC 76615 assessed as reduction in fungal cell growth incubated for 48 hrs by two-fold serial dilution method; format: functional; settings: ATCC 76615, 48 h
Cryptococcus neoformans = experiment: Antifungal activity against Cryptococcus neoformans ATCC 32719 assessed as reduction in fungal cell growth incubated for 48 hrs by two-fold serial dilution method; format: functional; settings: ATCC 32719, 48 h
Aspergillus flavus = experiment: Antifungal activity against Aspergillus flavus ATCC 16870 assessed as reduction in fungal cell growth incubated for 48 hrs by two-fold serial dilution method; format: functional; settings: ATCC 16870, 48 h
Staphylococcus aureus [2] = experiment: Antibacterial activity against Staphylococcus aureus ATCC 25923 assessed as reduction in bacterial cell growth incubated for overnight by two-fold serial dilution method; format: functional
Staphylococcus aureus [3] = experiment: Antibacterial activity against methicillin resistant Staphylococcus aureus N 315 assessed as reduction in bacterial cell growth incubated for overnight by two-fold serial dilution method; format: functional
Bacillus subtilis = experiment: Antibacterial activity against Bacillus subtilis ATCC 6633 assessed as reduction in bacterial cell growth incubated for overnight by two-fold serial dilution method; format: functional
Proteus vulgaris = experiment: Antibacterial activity against Bacillus proteus ATCC 8427 assessed as reduction in bacterial cell growth incubated for overnight by two-fold serial dilution method; format: functional
Escherichia coli = experiment: Antibacterial activity against Escherichia coli JM109 assessed as reduction in bacterial cell growth incubated for overnight by two-fold serial dilution method; format: functional
Saccharomyces cerevisiae = experiment: Inhibition of Saccharomyces cerevisiae CGMCC 2.145 chitin synthase using GlcNAc and UDP-GlcNAc as substrate at 300 ug/ml incubated for 60 mins by microplate reader analysis relative to control

Structure (SMILES) | MIC (Pseudomonas aeruginosa) [µg/mL] | IC50 [1] [µM] | MIC (Candida albicans) [µg/mL] | MIC (Cryptococcus neoformans) [µg/mL] | MIC (Aspergillus flavus) [µg/mL] | MIC (Staphylococcus aureus [2]) [µg/mL] | MIC (Staphylococcus aureus [3]) [µg/mL] | MIC (Bacillus subtilis) [µg/mL] | MIC (Proteus vulgaris) [µg/mL] | MIC (Escherichia coli) [µg/mL] | inhibition (Saccharomyces cerevisiae) [%]
CCCCNC[C@H](O)CN1CCN(c2cccc3c2CCC(=O)N3)CC1.Cl | 128 | 340 | 64 | 256 | 512 | 256 | 256 | 512 | 256 | 128 | 
Cl.O=C1CCc2c(cccc2N2CCN(CC(O)Cn3ccnc3)CC2)N1 (racemic) | 128 | 470 | 64 | 256 | 256 | 64 | 128 | 64 | 128 | 128 | 53.3
Cl.O=C1CCc2c(cccc2N2CCN(CC(O)CNc3ccccc3)CC2)N1 (racemic) | 256 | 150 | 64 | 128 | 128 | 128 | 128 | 128 | 128 | 256 | 62.7
Cl.O=C1CCc2c(cccc2N2CCN(CC(O)CNc3ccccc3Cl)CC2)N1 (racemic) | 256 | 470 | 32 | 512 | 128 | 64 | 128 | 128 | 64 | 128 | 52.4
Cl.O=C1CCc2c(cccc2N2CCN(CC(O)CNc3ccc(Cl)cc3)CC2)N1 (racemic) | 128 | 360 | 32 | 256 | 256 | 64 | 64 | 64 | 128 | 128 | 59.3
Cl.O=C1CCc2c(cccc2N2CCN(CC(O)CNc3ccc(Br)cc3)CC2)N1 (racemic) | 256 | 380 | 64 | 256 | 64 | 64 | 128 | 64 | 128 | 256 | 55.4
COc1ccc(NCC(O)CN2CCN(c3cccc4c3CCC(=O)N4)CC2)cc1.Cl (racemic) | 128 | 100 | 32 | 128 | 128 | 64 | 128 | 128 | 256 | 64 | 84.9
CCCCNCC(O)CN1CCN(c2cccc3c2CCC(=O)N3)CC1.Cl (racemic) | 256 | 370 | 64 | 256 | 256 | 256 | 128 | 256 | 256 | 256 | 63.7
NC(=O)OC[C@H](O)[C@@H](O)[C@H](N)C(=O)N[C@H](C(=O)O)[C@H]1O[C@@H](n2cc(CO)c(=O)[nH]c2=O)[C@H](O)[C@@H]1O [POLYOXIN B] |  | 180 | 32 (≈ 63.1 µM) | 8 (≈ 15.8 µM) | 32 (≈ 63.1 µM) |  |  |  |  |  | 85.1
